US9951010B2, “Compounds as CRTH2 antagonist and uses thereof” (SUNSHINE LAKE PHARMA CO., LTD., priority 2014, dated 2018)

Experiments:
[1] = Metabolic stability in human liver microsomal; type: in vitro ADME; settings: liver microsomes, pH 7.4, 37° C.
Method: (§1) The analysis was performed using a 4000 QTRAPP series LC/MS/MS mass spectrometer equipped with Agilent 1200 dual injection pumps, 1290 automatic sampler, column oven and ESI source, detecting by the negative ion MRM mode. Waters Xbridge C18 column was used in the analysis, and the mobile phase consisted of phase (A) (2 mM ammonium formate+0.1% aqueous ammonia solution) and phase (B) (2 mM ammonium formate+0.1% ammonia methanol solution), the flow rate was 0.4 mL/min, column temperature was 40° C., the amount of injection was 3 μL.
(§2) A mixture of the compound and human liver microsomal, a mixture of the compound and dog liver microsomal, or a mixture of the compound and rat liver microsomal were separately incubated at 37° C., under a condition of pH7.4. The sample concentrations at various incubative times were detected by LC/MS/MS (the method described in biologic example 3), speed constant was obtained by plotting “Log [drug concentration]” to “incubative time” in GraphPad Prism 5.01, and the drug half-life and intrinsic clearance rate were calculated; metabolic stability of the compound in liver microsomal were evaluated based on the drug half-life and intrinsic clearance rate.

[2] = Detection of PK in Beagle dogs; type: in vivo; settings: male, dog, plasma
Method: as §1
(§3) The male Beagle dogs or rats were administered with the compound of the invention by intravenous injection (0.4 mg/Kg) and gavage (1 mg/Kg) respectively, the blood samples were collected at the time point of 0.083, 0.25, 0.5, 1, 2, 4, 6, 8, 10, 24 and 36 h and then centrifuged to obtain plasma samples. The compound concentrations in plasma samples at various times were detected by LC/MS/MS (the method described in biologic example 3), the main pharmacokinetic parameters were calculated, and pharmacokinetic properties of the compounds of the invention in Beagle dogs or rats were evaluated.

CRTH2 receptor = target: T1, CRTH2 receptor (Homo sapiens, UniProt Q9Y5Y4); test: FLIPR detection of inhibitory activity against CRTH2 (CHO-K1/G cells, PGD2 as agonist); type: cell-based; settings: CHO-K1/G cells with stable expression of CRTH2 receptor, PGD2 at EC80, FLIPR
T1 construct: expressed in transfected cells; host or cells: CHO-K1/G cells
T1 sequence (Q9Y5Y4 1-395): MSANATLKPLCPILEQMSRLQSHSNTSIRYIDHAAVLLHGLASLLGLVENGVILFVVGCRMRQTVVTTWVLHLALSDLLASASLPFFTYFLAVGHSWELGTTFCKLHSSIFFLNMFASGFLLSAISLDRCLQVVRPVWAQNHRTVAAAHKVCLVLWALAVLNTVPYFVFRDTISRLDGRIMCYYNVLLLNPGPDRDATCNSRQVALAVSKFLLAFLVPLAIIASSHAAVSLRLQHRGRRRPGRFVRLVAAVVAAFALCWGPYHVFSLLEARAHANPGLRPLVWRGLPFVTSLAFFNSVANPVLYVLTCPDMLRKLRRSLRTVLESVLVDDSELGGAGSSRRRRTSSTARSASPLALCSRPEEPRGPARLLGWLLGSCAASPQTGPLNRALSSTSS
Method: The test compound was weighed accurately and then dissolved in a suitable amount of DMSO to prepare a stock solution at a concentration of 10 mM; after clear and transparent, the stock solution was subpackaged and cryostoraged at −20° C. for use. Before testing, the test compound was diluted with balanced salt solution (HBSS buffer, containing 4-(2-hydroxyethyl)piperazine-1-ethanesulfonicacid) at a concentration of 20 mM) to 5 times testing concentration.
CHO-K1/G cells with stable expression of CRTH2 receptor were prepared to 5 times testing concentration and seeded into 384-microwell plate, and incubated in an incubator at 37° C./5% CO2. After incubating for 18 hours, to the cells in 384-microwell plate was added 20 μL of dye followed by the addition of 10 μL of prepared test compound solution. And then the cell plate was incubated in the incubator at 37° C./5% CO2 for 1 hour, at last which was balanced at rt for 15 min. After adding 12.5 μL of positive agonist (PGD2) at a concentration of 5 times EC80 to each well of the cell plate, the RFU (fluorescence intensity) value of the test compound was detected.
The data were recorded from ScreenWorks (version 3.1), and collected and analyzed by using Excel and GraphPad Prism 6 software to calculate the values of IC50.

[3] = test system: OVA (ovalbumin)-induced asthmatic model in rats; test: OVA (ovalbumin)-induced asthmatic model in rats, count of white blood cells in lung lavage; type: in vivo; settings: OVA-sensitized rats, gavage once a day for three days, lung lavage solution
Method: The experiment purpose was to assess the drug efficacy of the test compound in OVA (ovalbumin)-induced asthmatic model in rats.
Grouping the animal randomly to control group, model group and administered group. At the first, second and third day, the control group was administered with 1 mL of PBS (phosphate buffer solution) by intraperitoneal injection, and the model group and administered group were administered with a sensitization solution (prepared by mixing 6 mL of 1% OVA in phosphate buffer solution and 54 mL of alum solution at a ratio of 1:9) by intraperitoneal injection per day (1 mL per rat).
From the nineteenth day, the administered group was administered with the test compound at a certain dose by gavage, and the control group and model group was administered with the menstruum at a corresponding dose by gavage, once a day for three days. After 1 hour of administering each day, attacking the model group and administered group with 1% OVA in phosphate buffer solution and the control group with phosphate buffer solution for 20 min.
At the twenty-third day, the animals were anesthetized with 1% pentobarbital sodium (60 mg/Kg) by intraperitoneal injection. The blood samples were collected from aorta abdominalis under pentobarbital sodium anaesthesia into EDTA-K2 tubes. After tracheal intubation was performed, the lung of the animals were lavaged with 3 mL of PBS containing 1% FBS (Fetal Bovine Serum) once, and then lavaged with 5 mL of PBS containing 1% FBS at least two times; the volume of the combined lavage solutions were adjusted to 15 mL. The total cells in the lavage solution were counted by using a hemacytometer and a Trypan blue staining method and then white blood cells in the lavage solution were counted differentially.

Detection of PK in rats = type: in vivo; settings: rat, plasma
Method: as §1, §3

[4] = test system: eosinophilia in airway of Wistar rats induced by DK-PGD2; test: Eosinophilia in airway of Wistar rats induced by DK-PGD2, cell count in BALF; type: in vivo; parameters: The total number of white blood cells: unit not given here
Method: Purpose: evaluation of inhibitory effects of the compounds on the total number of white blood cells and eosinophilia in airway of Wistar rats induced by DK-PGD2.
Process: observation on the drug therapeutic effect through preventive medication. Specific operation: After 0.5 h of administering a preventive dose, the administered group and model group were induced eosinophilia with 100 μL of DK-PGD2 by spray injection through airway of rats, the blank group was spray injected with a corresponding dose of normal saline; after 24 h of molding, the rats were killed by bloodletting from aorta abdominalis, exposing the airway and the chest, performing the trachea cannula, and the bronchial pulmonary alveoli were lavaged with 8 mL of 1% BSA in PBS in twice, the bronchoalveolar lavage fluids (BALF) were collected and placed in an ice-bath; after smear, the cells were differential counted. The concentration of DK-PGD2 mother liquor was 10 mg/mL, which was diluted 5 folds to get 2 mg/mL.

[5] = Metabolic stability in dog liver microsomal; type: in vitro ADME; settings: liver microsomes, pH 7.4, 37° C.
Method: as §1, §2

[6] = Metabolic stability in rat liver microsomal; type: in vitro ADME; settings: liver microsomes, pH 7.4, 37° C.
Method: as §1, §2

[7] = pH7.4, intrinsic clearance, read-out: Clearance rate
[8] = pH7.4, read-out: Drug half-life
[9] = Wistar rats, 10 mg/Kg preventive dose 0.5 h before DK-PGD2, BALF after 24 h

## Cc1c(C2CCN(S(=O)(=O)c3ccc(F)cc3)CC2)c2cc(F)ccc2n1CC(=O)O [Example 24, 2-(5-fluoro-3-(1-((4-fluorophenyl)sulfonyl)piperidin-4-yl)-2-methyl-1H-indol-1-yl)acetic acid]
[1]; [7]
  CLint scaled: 2.55 mL/min/kg
[1]; [8]
  half-life: 11.4 h
[2]; iv, 0.4 mg/Kg
  AUC(0-inf): 5500 ng·h/mL
  AUC(0-t): 5400 ng·h/mL
  Cmax: 3210 ng/mL
  half-life: 4.72 h
[2]; po, p.o. (gavage), 1 mg/Kg
  AUC(0-inf): 6920 ng·h/mL
  AUC(0-t): 6600 ng·h/mL
  Cmax: 1160 ng/mL
  half-life: 10.8 h
CRTH2 receptor
  IC50: 148 nM
[3]
  Eosinophilic granulocyte Inhibition ratio: 36.8%
  Eosinophilic granulocyte Number (×10^5/mL): 145.82 ×10^5/mL
  Total number of white cells (×10^5/mL): 272.775 ×10^5/mL
Detection of PK in rats; iv, 0.4 mg/Kg
  AUC(0-inf): 1030 ng·h/mL
  AUC(0-t): 991 ng·h/mL
  Cmax: 757 ng/mL
  half-life: 3.4 h
Detection of PK in rats; po, p.o. (gavage), 1 mg/Kg
  AUC(0-inf): 1890 ng·h/mL
  AUC(0-t): 1710 ng·h/mL
  Cmax: 393 ng/mL
  half-life: 4.37 h
[4]; Wistar rats induced by DK-PGD2, compared with OC000459
  inhibitory effects on the total number of white blood cells and the number of eosinophilic granulocytes: stronger than those of OC000459
[4]; [9]
  Eosinophilic granulocyte C (10^5/ml): 0.0804 ± 0.02^## 10^5/ml
  Eosinophilic granulocyte Inhibition rate: 80.77%
  The total number of white blood cells: 1.881 ± 0.26
[5]; [7]
  CLint scaled: 1.37 mL/min/kg
[5]; [8]
  half-life: 42.1 h
[6]; [7]
  CLint scaled: 13.8 mL/min/kg
[6]; [8]
  half-life: 3 h
